# Reference: patent publication US8669347B2, “Truncated variant of the mammalian target for rapamycin (MTOR) protein” (UCL Business PLC, priority 2007, dated 2014)
# Test system: Hek293 stable cell lines
# Experiment: Cell proliferation assay (Resazurin based) of Hek293 stable cell lines
# Set-up: species or system human
# Settings: overexpressing stable lines grown 7 days, six independent studies
# Procedure: Hek293 stable cell lines, over-expressing mTORβ wt, mTORα wt or EGFP were seeded into a 96 well plate at various densities (250, 500, 1000 and 2000 cells per well) and grown under standard conditions for 7 days. Cell numbers were than measured in each well by a Resosurin based assay. Normalized growth curves for each cell line were calculated using data from six independent experiments (A). Western blot analysis of total cell lysates of stable cell lines with antibodies to c-myc and its transcription targets (B). The level of proteins was densitometrically measured, actin normalized and folds were calculated against EGFP expressing stable cell line (C).
# HEK293 stable cell lines, overexpressing mTORβ wt, mTORβ kinase-dead or EGFP were seeded into 96 well plate at various densities (1000, 2000, 4000 and 8000 cells per well) and grown under standard conditions for 5 days. Cell numbers were then measured in each well by Resazurin based assay. Normalized growth curves for each cell line were calculated using data from six independent experiments (A). Western blot analysis of total cell lysates of stable cell lines with antibodies to c-myc and its transcription targets. The level of proteins was densitometrically measured, actin normalized and folds were calculated against EGFP expressing stable cell line (B). […]
substance,measurement,value
"mTORα wt: full-length mammalian target for rapamycin protein, approximately 2549 amino acids (SEQ ID NO: 4)",proliferation compared to control (EGFP) cells,no difference in proliferation
